Measured values reported in US9486434B2, “Method for delivery and use of isothiocyanates for prophylaxis and/or therapy of bladder cancer” (Health Research Inc., priority 2010, dated 2016).
* marks the point of attachment. Cbz = O=C(OCc1ccccc1)*; CH2F = FC*

Tests used:
[1] = test system: α-tubulin, β-tubulin, γ-tubulin, caspase-9, caspase-3, VEGF in UM-UC-3 cells; assay: Western blotting in UM-UC-3 cells (tubulins, caspases, VEGF); format: cell-based, human; conditions: co-treatment, 20 microM Z-LEHD-FMK
Method: (§1) FIG. 4. Effect of AITC on mitosis, tubulin expression and apoptosis in human bladder cancer UM-UC-3 cells. Cells were treated with vehicle or AITC for 24 h (each numerical value is mean±SD). A. Flow cytometry analysis for cell cycle arrest. B. Wright-Giemsa staining for counting mitotic figures. Arrows point to cells in mitosis or mitotic catastrophe. C. Immunofluorescent staining of microtubules (green color) and DNA staining with DAPI (blue color). D. Western blotting of tubulins (GAPDH as a loading control). E. Loss of mitochondrial transmembrane potential (Δψm) measured by flow cytometry. F. Western blotting of caspase-9 and caspase-3 (GAPDH as a loading control). G. Apoptotic cells (TUNEL cells) measured by flow cytometry. Cells in F and G were co-treated with or without 20 microM Z-LEHD-FMK (a caspase-9 inhibitor).
(§2) FIG. 8. Inhibition of bladder cancer development by MSP-1. Female F344 rats were inoculated with AY-27 cells intravesically via a urethra catheter to initiate development of orthotopic bladder cancer. Oral administration of MSP-1 of vehicle (water) once daily was started 1 day after cancer cell inoculation and ended 3 weeks later. The number of rats per group varied from 11-29. A. Initial (□) and final (▪) body weights. B. Tumor weight was calculated by subtracting the average normal bladder weight from tumor-bearing bladder weight. *P<0.05. Each value in A and B is mean±SEM. C. Percentage of bladder where the tumor invaded the muscle tissue. D. The effects of MSP-1 on selected anticancer targets in UM-UC-3 cells (in vitro), AY-27 cells (in vitro) and AY-27 tumors (in vivo). The cells were treated with MSP-1 at the sinigrin concentrations of 13 and 26 microM for 24 h. The bladder tumors were removed from rats treated with MSP-1 at the sinigrin doses of 9 or 90 micromols/kg once daily for 3 weeks, started 1 day after cancer cell inoculation. Cell lysates and tumor homogenates were analyzed by Western blotting, using GAPDH as a loading control.
Western blot analysis. […]

[2] = test system: UM-UC-3 cells; assay: Mitochondria-mediated apoptosis in UM-UC-3 cells (Δψm, cytochrome c, TUNEL); format: cell-based, human; conditions: co-treatment, 20 microM Z-LEHD-FMK
Method: as §1

[3] = reference [18]; cited from earlier work
[4] = test system: cyclooxygenase-2 (Cox-2) in human bladder cancer HT1376 cells; assay: Western blot analysis of Cox-2 in HT1376 cells; format: cell-based; conditions: 24 h, cells overexpressing Cox-2
Method: FIG. 5. The effects of AITC and SF on cyclooxygenase-2 (Cox-2) expression in human bladder cancer cells. Human bladder cancer HT1376 cells that over express Cox-2 were treated with AITC or SF at the indicated concentrations for 24 h and then harvested for Western blot analysis of Cox-2. GAPDH is used as a loading control.

[5] = test system: rat bladder cancer AY-27 cells; assay: MTT cell growth and proliferation assay, AY-27 cells; format: cell-based; conditions: sinigrin by itself, without myrosinase; result not shown
Method: (§3) FIG. 3. The effect of AITC on cell survival and proliferation. AITC was evaluated at the indicated concentrations in human bladder cancer UM-UC-3 cells, rat bladder cancer AY-27 cells, and normal human bladder epithelial cells (HUC). A. Cell growth inhibition, measured by MTT assay, 72-h AITC treatment. IC50 was calculated from nonlinear regression curve fit. B. Cell cycle arrest (□, subG1; ? , G1; ? , 5; ▪, G2/M), measured by flow cytometry, 24 h AITC treatment. C. Apoptosis induction, measured by an ELISA assay, 24 h AITC treatment. Mean±SE, n=3-6), *P<0.05.
(§4) FIG. 10. The effect of NAC-AITC on cell survival and proliferation. NAC-AITC was evaluated in both UM-UC-3 cells and AY-27 cells. (A) Chemical structures of AITC and NAC-AITC. (B) Cell growth and proliferation, measured by 3-([…])-2,5-diphenyltetrazolium bromide assay, 72 h treatment with AITC or NAC-AITC at indicated concentrations. IC50 was calculated from the non-linear regression curve fit. (C) Apoptosis, measured by an enzyme-linked immunosorbent assay, 24 h NAC-AITC treatment at 15 µM. (D) Cell cycle (open bars, G1; shaded bars, S; closed bars, G2/M), measured by flow cytometry, 24 h NAC-AITC treatment at 15 μM. *P<, 0.005, compared with control.
(§5) Assays for cell proliferation, cell cycle arrest and apoptosis. To determine the antiproliferative activity of NAC-AITC, AY-27 cells were grown in 96-well microtiter plates ([…] with 0.15 ml medium per well) for 24 h and then grown for 72 h in fresh medium (0.2 ml/well) containing a series of concentrations of NAC-AITC or solvent. Cell growth was measured at the end of treatment using the 3-([…])-2,5-diphenyltetrazolium bromide assay, from which the half maximal inhibitory concentration (IC50) of NAC-AITC was calculated. AITC was also evaluated for comparison.

[6] = test system: human bladder cancer UM-UC-3 cells; assay: MTT cell growth and proliferation assay, UM-UC-3 cells; format: cell-based; conditions: sinigrin by itself, without myrosinase; result not shown
Method: as §3, §4, §5

[7] = test system: orthotopic AY-27 bladder tumor; assay: Orthotopic rat bladder cancer model; format: in vivo, rat (female F344); conditions: sinigrin
From the text: FIG. 6. […] Female F344 rats were inoculated intravesically with bladder cancer AY-27 cells to initiate development of orthotopic bladder tumor. Oral administration of AITC at 0, 10, 25, 50 and 300 micromols/kg once daily was started 1 day after AY-27 cell inoculation and ended 3 weeks later. The number of rats per group varied from 6 to 33; some of the data, particularly the control group (n=33) and the group treated with the lowest dose of AITC (n=23), were pooled from several experiments. A. The initial and final body weights. B. The weights of bladder tumors. […] C. Percentage of bladders where the tumor invaded the muscle tissue. D. H/E staining of the normal rat bladder wall (D1), a superficial rat bladder tumor (D2), and a rat bladder tumor that invaded the muscle layer (D3).
as §2, with “Inhibition of bladder cancer development by MSP-1.” left out, “B. Tumor weight was calculated by subtracting the average normal bladder weight from tumor-bearing bladder weight. *P<0.05.” left out, “The cells were treated with MSP-1 at the sinigrin concentrations of 13 and 26 microM for 24 h.” left out
FIG. 9. […] Female F344 rats were inoculated with bladder cancer AY-27 cells to initiate development of orthotopic bladder tumor. Oral administration of the powder (sinigrin and glucoraphanin: each at 10 micromols/kg) once daily was started 1 day after AY-27 cell inoculation and ended 3 weeks later. The number of rats per group was 9-10. Each value is mean±SE.
FIG. 12. […] Bladder cancer was initiated in female F344 rats by orthotopic inoculation of bladder cancer AY-27 cells. Oral administration of NAC-AITC at 10 μmmol/kg body wt once daily was started 1 day after cancer cell inoculation and ended 3 weeks later. There were 23 rats in the control group and 15 rats in the treatment group. (A) The initial (open bars) and final (closed bars) body weight. (B) Bladder tumor weight. Each value is a mean±SE. (C) Percentage of bladders where the tumor invaded the muscle tissue.
AITC was evaluated in an orthotopic rat bladder cancer model. […] Daily oral administration of AITC was initiated one day after instillation of AY-27 cells and continued for 3 weeks. AITC was evaluated at 4 dose levels: 10, 25, 50 and 300 micromols/kg. […] FIG. 6D depicts representative images of normal rat bladder wall (D1), a superficial AY-27 rat bladder tumor (D2), and a muscle-invasive AY-27 rat bladder tumor (D3).
A syngeneic orthotopic rat bladder cancer model.

[8] = Conversion of sinigrin to AITC in vivo; conditions: rat

In the case of Cbz-LEHD-CH2F [reference compound], the “effect on AITC-caused activation of the caspases” value [1] is reported as “completely blocked” and the “effect on AITC-caused formation of TUNEL-positive cells” value [2] is reported as “completely blocked”.
In the case of `C[S+]([O-])CCCCN=C=S` (centres unmarked) [SF, sulforaphane], the “delivery to bladder tissue” value [3] is given as “selectively delivered to bladder tissue through urinary excretion” and the “effect on Cox-2 expression” value [4] is given as “strongly down regulates”.
With `C=CCC(=NOS(=O)(=O)O)S[C@@H]1O[C@H](CO)[C@@H](O)[C@H](O)[C@H]1O` (stereo in doubt) [sinigrin, reference compound] the “activity in vitro on bladder cancer cell line” value [5] was “inactive”, the “activity in vitro on bladder cancer cell line” value [6] was “inactive” and the “efficacy in the orthotopic rat bladder cancer model” value [7] was “ineffective”. For the same molecule, the “sinigrin converted to AITC in vivo” value [8] was 3-5%.
